Measurements reported in patent US9650339B2, “Inhibitors of histone demethylases” (Gilead Sciences, Inc., priority 2013, dated 2017).
Read-outs that look alike come from different tables or passages of the source.

What was measured:
[1] = system: MCF7 cells; assay: Cell proliferation assay MCF7; format: cell-based; conditions: MCF7 human breast cancer cells; 120 hours; ATPlite 1 Step
Protocol: MCF7 cells were seeded in multi well plates at a density optimized to give approximately 90% confluent cells at the time of harvest. Cells were incubated for 24 hours before addition of compound. Compounds were diluted in complete medium and added to the plates in duplicates. The final concentration of DMSO was maximum 0.5%. Complete medium used was DMEM with GlutaMAX containing 10% FBS and pen/strep.
120 hours after addition of compounds, the plates were harvested and analyzed by ATPlite 1 Step (Perkin Elmer, cat no 6016739) according to the manufactures recommendation.

[2] = molecular target: KDM6A (UTX) (Homo sapiens, UniProt O15550); assay: Histone lysine demethylase AlphaLISA assay, KDM6A; format: biochemical
Chain of KDM6A (UTX) (O15550 919-1401): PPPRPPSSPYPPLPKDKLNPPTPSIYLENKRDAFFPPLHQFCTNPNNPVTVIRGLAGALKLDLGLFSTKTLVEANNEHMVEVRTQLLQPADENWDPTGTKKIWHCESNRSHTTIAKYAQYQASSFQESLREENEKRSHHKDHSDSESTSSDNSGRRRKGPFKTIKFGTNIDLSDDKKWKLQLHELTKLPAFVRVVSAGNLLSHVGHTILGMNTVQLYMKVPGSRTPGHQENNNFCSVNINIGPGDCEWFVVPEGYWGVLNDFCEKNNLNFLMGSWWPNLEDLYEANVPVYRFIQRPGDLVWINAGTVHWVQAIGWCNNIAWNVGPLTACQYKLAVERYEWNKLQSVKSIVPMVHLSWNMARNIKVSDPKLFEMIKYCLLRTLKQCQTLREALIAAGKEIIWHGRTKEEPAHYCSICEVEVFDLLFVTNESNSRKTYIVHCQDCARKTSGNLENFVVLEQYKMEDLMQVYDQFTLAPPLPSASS
Protocol: (§1) Assays are performed analogously to the protocol described by PerkinElmer (Roy et al. PerkinElmer Technical Note: AlphaLISA #12, April 2011)
(§2) Enzymes are dissolved in enzyme buffer and incubated for 10 min before being added to 3% DMSO solutions of compounds in enzyme buffer. Incubated for another 10 minutes, before substrate solution is added and the reaction mixture is incubated at room temperature. 10 μL acceptor beads, suspended in Epigenetic Buffer (Perkin Elmer AL008) from stock, are added and the suspension is incubated in the dark at room temperature, before a suspension of streptavidin donor beads (Perkin Elmer 6760002) in Epigenetic Buffer is added. After incubation at room temperature in the dark the plates are read. […]
BK27M3: Biotin-ATKAAR(Kme3)SAPATGGVKKPHRY-NH2? (Caslo, Denmark) […]
(§3) Substrate Solution: Substrate, 25 μM L-Asc, and 10 μM α-KG in Buffer A.

[3] = molecular target: T1, KDM4C (JMJD2C) (Homo sapiens, UniProt Q9H3R0); assay: Histone lysine demethylase AlphaLISA assay, KDM4C; format: biochemical
T1 sequence (Q9H3R0 1-349): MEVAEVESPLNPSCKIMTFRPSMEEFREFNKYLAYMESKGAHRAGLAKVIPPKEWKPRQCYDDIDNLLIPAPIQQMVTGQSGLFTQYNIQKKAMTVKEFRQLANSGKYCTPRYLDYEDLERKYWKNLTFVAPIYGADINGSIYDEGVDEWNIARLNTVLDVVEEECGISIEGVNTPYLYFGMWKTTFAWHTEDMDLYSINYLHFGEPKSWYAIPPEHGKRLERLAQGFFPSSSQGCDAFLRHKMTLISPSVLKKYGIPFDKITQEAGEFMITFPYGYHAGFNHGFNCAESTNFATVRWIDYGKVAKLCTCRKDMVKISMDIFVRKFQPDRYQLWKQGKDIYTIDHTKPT
Protocol: as §1
Enzymes are dissolved in enzyme buffer and incubated for 10 min before being added to 3% DMSO solutions of compounds in enzyme buffer. Incubated for another 10 minutes, before substrate solution is added and the reaction mixture is incubated at room temperature. 10 μL acceptor beads, suspended in Epigenetic Buffer (Perkin Elmer AL008) from stock, are added and the suspension is incubated in the dark at room temperature, before a suspension of streptavidin donor beads (Perkin Elmer 6760002) in Epigenetic Buffer is added. After incubation at room temperature in the dark the plates are read.
BK9M3: Biotin-ARTKQTAR(KMe3)STGGKAPRKQ-NH2 (Caslo, Denmark) […]
as §3

[4] = molecular target: T2, KDM5B (PLU-1) (Homo sapiens, UniProt Q9UGL1); assay: Histone lysine demethylase AlphaLISA assay, KDM5B; format: biochemical
T2 sequence (Q9UGL1 1-809): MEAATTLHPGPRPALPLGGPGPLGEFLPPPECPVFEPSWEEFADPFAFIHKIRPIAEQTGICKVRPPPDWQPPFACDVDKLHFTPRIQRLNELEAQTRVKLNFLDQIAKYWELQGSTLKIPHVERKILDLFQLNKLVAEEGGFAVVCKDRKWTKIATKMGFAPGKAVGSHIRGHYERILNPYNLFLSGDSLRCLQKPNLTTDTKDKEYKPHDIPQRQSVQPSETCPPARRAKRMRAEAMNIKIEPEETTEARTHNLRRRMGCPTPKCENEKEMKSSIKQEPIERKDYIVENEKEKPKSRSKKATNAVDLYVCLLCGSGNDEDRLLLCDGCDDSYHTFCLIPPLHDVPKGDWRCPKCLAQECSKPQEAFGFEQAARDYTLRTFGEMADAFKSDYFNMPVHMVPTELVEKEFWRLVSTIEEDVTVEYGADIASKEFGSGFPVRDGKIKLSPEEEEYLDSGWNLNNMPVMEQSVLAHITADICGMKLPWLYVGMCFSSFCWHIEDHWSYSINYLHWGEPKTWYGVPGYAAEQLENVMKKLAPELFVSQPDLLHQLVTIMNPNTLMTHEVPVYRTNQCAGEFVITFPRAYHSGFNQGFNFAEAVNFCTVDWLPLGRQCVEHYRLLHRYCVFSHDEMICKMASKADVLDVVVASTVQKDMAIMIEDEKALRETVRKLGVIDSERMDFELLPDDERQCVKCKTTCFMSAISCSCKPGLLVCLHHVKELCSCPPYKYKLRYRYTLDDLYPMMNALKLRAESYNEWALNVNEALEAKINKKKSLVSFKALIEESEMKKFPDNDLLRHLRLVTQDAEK
Protocol: as §1, §2
H3K4M3B: H-ART(Kme3)QTARKSTGGKAPRKQLA-NH-Biotin (Caslo, Denmark) […]
as §3

[5] = molecular target: T3, KDM2B (FBXL10) (Homo sapiens, UniProt Q8NHM5); assay: Histone lysine demethylase AlphaLISA assay, KDM2B; format: biochemical; conditions: read-out: KDM2B HDME Inhibition IC50
T3 sequence (Q8NHM5 1-650): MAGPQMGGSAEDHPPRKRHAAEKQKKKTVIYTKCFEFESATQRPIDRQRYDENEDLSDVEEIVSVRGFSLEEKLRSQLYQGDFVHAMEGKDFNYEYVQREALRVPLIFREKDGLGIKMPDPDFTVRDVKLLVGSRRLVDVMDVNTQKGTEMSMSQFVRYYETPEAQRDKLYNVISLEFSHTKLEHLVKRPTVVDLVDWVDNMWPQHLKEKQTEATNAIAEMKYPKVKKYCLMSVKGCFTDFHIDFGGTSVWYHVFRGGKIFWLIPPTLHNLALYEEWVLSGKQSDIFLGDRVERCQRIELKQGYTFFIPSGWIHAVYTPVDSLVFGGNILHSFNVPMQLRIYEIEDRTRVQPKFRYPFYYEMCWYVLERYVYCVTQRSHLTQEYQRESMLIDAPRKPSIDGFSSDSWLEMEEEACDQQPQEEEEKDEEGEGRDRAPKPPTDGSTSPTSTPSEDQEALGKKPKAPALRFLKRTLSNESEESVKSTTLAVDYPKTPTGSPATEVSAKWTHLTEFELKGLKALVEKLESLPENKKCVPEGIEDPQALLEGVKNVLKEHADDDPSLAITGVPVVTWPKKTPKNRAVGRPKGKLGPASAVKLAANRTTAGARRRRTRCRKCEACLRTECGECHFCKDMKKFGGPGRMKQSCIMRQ
Protocol: as §1, §2
BH3K36M2: RKAAPATGGVK(Me2)KPHRYRPGTVK-(BIOTIN)? (Anaspec)
as §3

[6] = read-out: KDM6A HDME Inhibition IC50
[7] = read-out: KDM4C HDME Inhibition IC50
[8] = read-out: KDM5B HDME Inhibition IC50

| Compound | EC50 [1] | IC50 [2, 6] | IC50 [3, 7] | IC50 [4, 8] | IC50 [5] | IC50 [2] | IC50 [3] | IC50 [4] |
| --- | --- | --- | --- | --- | --- | --- | --- | --- |
| CCN(CC)CCCCNCc1cc(/C=N/CC(C)(C)CO)ccn1 [Compound 76, 3-[{[2-({[4-(diethylamino)-butyl]amino}-methyl)pyridin-4-yl]methylidene}-amino]-2,2-dimethylpropan-1-ol] | < 0.25 µM | – | > 2.5 µM | 0.25 to 2.5 µM | > 2.5 µM | – | – | – |
| CN(C)C1CCC(CNCc2cc(C=O)ccn2)C1 (stereo not drawn) [Compound 117, 2-[({[3-(dimethylamino)-cyclopenyl]methyl}-amino)methyl] pyridine-4-carbaldehyde] | 0.25 to 2.5 µM | > 2.5 µM | 0.25 to 2.5 µM | < 0.25 µM | – | – | – | – |
| CCOC(=O)c1ccccc1OC(=O)NCc1ccnc(CNCC(=O)N(CC)CCN(C)C)c1 [Compound 29, ethyl 2-({[(2-{[({[2-(dimethylamino)-ethyl](ethyl)-carbamoyl}methyl)-amino]methyl}pyridin-4-yl)methyl]-carbamoyl}-oxy)benzoate] | 0.25 to 2.5 µM | – | – | – | – | > 2.5 µM | > 2.5 µM | 0.25 to 2.5 µM |
| CCN(CC)CCCCNCc1cc(/C=N/C(CO)c2ccccc2)ccn1 (stereo not drawn) [Compound 75, 2-[{[2-({[4-(diethylamino)-butyl]amino}-methyl)pyridin-4-yl]methylidene}-amino]-2-phenylethan-1-ol] | < 0.25 µM | – | > 2.5 µM | < 0.25 µM | – | – | – | – |
| CCN(CC)CCCCNCc1cc(/C=N/C(C)CO)ccn1 (stereo not drawn) [Compound 73, 2-[{[2-({[4-(diethylamino)-butyl]amino}-methyl)pyridin-4-yl]methylidene}-amino]propan-1-ol] | < 0.25 µM | – | > 2.5 µM | < 0.25 µM | – | – | – | – |
| CCN(CC)CCCCNCc1cc(/C=N/CCCO)ccn1 [Compound 71, 3-[{[2-({[4-(diethylamino)-butyl]amino}methyl)pyridin-4-yl]methylidene}amino]-propan-1-ol] | < 0.25 µM | > 2.5 µM | > 2.5 µM | < 0.25 µM | – | – | – | – |
| CCN(CCN(C)C)C(=O)CNCc1cc(CNC(=O)C(F)(F)C(F)(F)C(F)(F)F)ccn1 [Compound 31, N-[(2-{[({[2-(dimethylamino)ethyl] (ethyl)carbamoyl}-methyl)amino]methyl}-pyridin-4-yl)-methyl]-2,2,3,3,4,4,4-heptafluorobutanamide] | 0.25 to 2.5 µM | > 2.5 µM | > 2.5 µM | 0.25 to 2.5 µM | > 2.5 µM | – | – | – |
| CCN(CC)C(=O)CNCc1cc(/C=N/CCc2ccc(C)cc2)ccn1 [Compound 69, N,N-diethyl-2-[({4-[{[2-(4-methylphenyl)-ethyl]imino}-methyl]pyridin-2-yl}methyl)amino]-acetamide] | > 2.5 µM | > 2.5 µM | 0.25 to 2.5 µM | < 0.25 µM | – | – | – | – |
| CCN(CC)CCCCNCc1cc(/C=N/CC(O)Cc2ccccc2)ccn1 (stereo not drawn) [Compound 84, 1-[{[2-({[4-(diethylamino)-butyl]amino}methyl)pyridin-4-yl]methylidene}amino]-3-phenylpropan-2-ol] | < 0.25 µM | > 2.5 µM | > 2.5 µM | 0.25 to 2.5 µM | > 2.5 µM | – | – | – |
| CCN(CC)CCCCNCc1cc(/C=N/CC(CO)Cc2ccccc2)ccn1 (stereo not drawn) [Compound 80, 2-{[{[2-({[4-(diethylamino)-butyl]amino}methyl)pyridin-4-yl]methylidene}-amino]methyl}-3-phenylpropan-1-ol] | 0.25 to 2.5 µM | > 2.5 µM | < 0.25 µM | < 0.25 µM | 0.25 to 2.5 µM | – | – | – |

Continued, in another order:

| EC50 [1] | IC50 [2, 6] | IC50 [3, 7] | IC50 [4, 8] | IC50 [5] | Compound | IC50 [2] | IC50 [3] | IC50 [4] |
| --- | --- | --- | --- | --- | --- | --- | --- | --- |
| < 0.25 µM | > 2.5 µM | 0.25 to 2.5 µM | < 0.25 µM | > 2.5 µM | CCN(CCN(C)C)C(=O)CNCc1cc(/C=N/CC(CO)Cc2ccccc2)ccn1 (stereo not drawn) [Compound 89, 2-[({4-[[(2-benzyl-3-hydroxypropyl)imino]methyl]pyridin-2-yl}methyl)amino]-N-[2-(dimethylamino)ethyl]-N-ethylacetamide] | – | – | – |
| < 0.25 µM | > 2.5 µM | > 2.5 µM | 0.25 to 2.5 µM | > 2.5 µM | CCN(CC)CCCCNCc1cc(C2NCC3(CCCC3)CO2)ccn1 (stereo not drawn) [Compound 72, [4-(diethylamino)-butyl][(4-{7-oxa-9-azaspiro[4.5]decan-8-yl}pyridin-2-yl)methyl]amine] | – | – | – |
| < 0.25 µM | – | 0.25 to 2.5 µM | < 0.25 µM | > 2.5 µM | CCN(CCN(C)C)C(=O)CNCc1cc(/C=N/CCCO)ccn1 [Compound 78, N-[2-(dimethylamino)-ethyl]-N-ethyl-2-[({4-[[(3-hydroxypropyl)imino]-methyl]pyridin-2-yl}-methyl)amino]-acetamide] | – | – | – |
| < 0.25 µM | > 2.5 µM | – | < 0.25 µM | > 2.5 µM | CCN(CCN(C)C)C(=O)CNCc1cc(/C=N/CC(O)CN(C)C)ccn1 (stereo not drawn) [Compound 86, 2-[({4-[{[3-(dimethylamino)-2-hydroxypropyl]imino}-methyl]pyridin-2-yl}methyl)amino]-N-[2-(dimethylamino)-ethyl]-N-ethylacetamide] | – | – | – |
| < 0.25 µM | – | 0.25 to 2.5 µM | < 0.25 µM | > 2.5 µM | CCN(CCN(C)C)C(=O)CNCc1cc(C2NCC(C)(C)CO2)ccn1 (stereo not drawn) [Compound 87, 2-({[4-(5,5-dimethyl-1,3-oxazinan-2-yl)pyridin-2-yl]methyl}amino)-N-[2-(dimethylamino)-ethyl]-N-ethylacetamide] | – | – | – |
